# Like-named read-outs stand apart in the source and are kept apart here.
# Key:
# [1] = system: Salmonella typhimurium TA98; assay: Mini-Salmonella/mammalian-microsome reverse mutation assay TA98; settings: for Revertants per well TA98, Mean: * positive increase
# Experimental: (§1) The tester strains used in the mutagenicity assay were Salmonella typhimurium tester strains TA98 (for detecting frame-shift reverse mutation) and TA100 (for detecting point reverse mutation). The assay was conducted in both the presence and absence of S9 mixture along with concurrent vehicle (DMSO, 20 μl/well) and positive controls in duplicate using 6-well plates. […] A reproducible two-fold increase (>2× of vehicle control) of revertant colonies over the daily average control value is considered a positive response of gene mutation for each strain.
# (§2) 2-nitrofluorene and sodium azide served as the positive controls in the absence of S9 for TA98 and TA100 respectively. 2-Aminoanthracene served as the positive controls in the presence of S9 for TA98 and TA100.
# [2] = system: Salmonella typhimurium TA100; settings: for Revertants per well TA100, Mean: * positive increase
# Experimental: as §1, §2
# Raf, MEK, and ERK = assay: Western blot of RAF-MEK-ERK pathway in H460, A375, BT-474 and H1975 cells; type: cell-based; settings: 100 nM, 16 hours
# Experimental: Cell extracts were prepared in the presence of SDS and 2-mercaptoethanol and resolved in polyacrylamide gels. Proteins were transferred to nitrocellulose filter and blotting was done using standard procedures with blocking solutions (Li-Cor Bioscience) containing the indicated primary antibody. Primary antibodies against p-EGFR, EGFR, p-HER2, HER2, p-HER3, HER3, p-MET, MET, p-bRaf, p-cRaf, pMEK, MEK, p-ERK, ERK and tubulin were purchased from Cell Signaling Technology. Secondary antibody conjugated with IRdye 680, 800CW were used and the signal was detected with Li-Cor Odyssey Imager.
# One major limitation of PI3K inhibitors in the treatment of cancers is the activation of the RAF-MEK-ERK pathway. HDAC inhibitors are able to inhibit kinase levels in this signaling pathway in cancer cells via epigenetic modification.
# [3] = +S9, positive control 0.8 μg/well
# [4] = −S9, positive control 0.4 μg/well
# [5] = −S9, positive control 2.0 μg/well
structure (smiles),measurement,setting,value
"Nc1ccc2cc3ccccc3cc2c1 [2-aminoanthracene, reference compound]",Background Lawn TA98,[1]; [3],4/4
same,"Revertants per well TA98, well 1",[1]; [3],>300
same,"Revertants per well TA98, well 2",[1]; [3],>300
same,"Revertants per well TA98, Mean",[1]; [3],>300*
same,Background Lawn TA100,[2]; [3],4/4
same,"Revertants per well TA100, well 1",[2]; [3],>300
same,"Revertants per well TA100, well 2",[2]; [3],>300
same,"Revertants per well TA100, Mean",[2]; [3],>300*
"O=[N+]([O-])c1ccc2c(c1)Cc1ccccc1-2 [2-nitrofluorene, reference compound]",Background Lawn TA98,[1]; [4],4/4
same,"Revertants per well TA98, well 1",[1]; [4],55
same,"Revertants per well TA98, well 2",[1]; [4],63
same,"Revertants per well TA98, Mean",[1]; [4],59*
"Cc1[nH]c2ccccc2c1CCNCc1ccc(/C=C/C(=O)NO)cc1 [LBH 589, reference compound]","Activation of Raf, MEK, and ERK","Raf, MEK, and ERK",showed similar activities in some of these Western blot assays
"[N-]=[N+]=[N-] [Sodium azide, reference compound]",Background Lawn TA100,[2]; [5],4/4
same,"Revertants per well TA100, well 1",[2]; [5],>300
same,"Revertants per well TA100, well 2",[2]; [5],>300
same,"Revertants per well TA100, Mean",[2]; [5],>300*

# Source: patent publication US11654136B2, “Phosphoinositide 3-kinase inhibitor with a zinc binding moiety” (Curis, Inc., priority 2011, dated 2023)
